This assay addresses 80S ribosome. Description: Fluorescence anisotropy binding to 80S ribosomes. Set-up: species or system yeast (S. cerevisiae). Particulars: competition with CRP, yeast ribosomes; read-out: Dissociation constant (KD) with 80S ribosome. The protocol: After establishing the lack of stereospecificity in the binding of aminoglycosides to the A-site RNA constructs (FIG. 9A-C) where the binding affinity, KD, is about 0.1 μM to about 100 μM, the stereospecificity of aminoglycoside binding to intact ribosomes was determined. Both yeast and E. coli ribosomes were prepared and aminoglycoside binding was measured using fluorescence anisotropy methods. For example, fluorescence anisotropy methods recited in Wang, Y., and Rando, R. R. Chem. Biol. (1995) 2, 281-290; and Wang, Y., Hamasaki, K., and Rando, R. R. Biochemistry (1997) 36,768-779. CRP was used as the binding probe. […] Binding data reported herein for aminoglycoside compounds with eukaryotic yeast ribosomes are similar to binding data for said aminoglycoside compounds with ribosoimes in bacteria and with eukaryotic A-site rRNA constructs.
5-Carboxytetramethylrhodamine-labeled paromomycin (CRP) and tobramycin (CRT) concentrations were determined spectroscopically at 550 nm using a molar extinction coefficient of 6.00×10 4 M −1 cm −1. Fluorescence anisotropy measurements were performed on a Perkin-Elmer LS-50B luminescence spectrometer equipped with a thermostat accurate to ±0.1° C. as indicated previously (Wang, Y., Hamasaki, K., & Rando, R. R. (1997) Biochemistry 36, 768-779). The tracer solution was excited at 550 nm and monitored at 580 nm. The integration time was 5 s. For every point, 6 measurements were taken, and their average values were used for calculation. Measurements were carried out in a buffer solution containing 150 mM NaCl, 5 mM KCl, 1 mM CaCl2, 1 mM MgCl2, and 20 mM HEPES (pH 7.5). Prior to measurements, RNA constructs were renatured by incubating in binding buffer {150 mM NaCl, 5 mM KCl, 1 mM CaCl2, 1 mM MgCl2, and 20 mM HEPES (pH 7.5)} for 3 minutes at 90° C. followed by slow cooling to 25° C.
Equation 1 was used for the determination of the dissociation constant (Kd) for the interactions between RNA or ribosome and CRP. A=A0+DA{(RNA)0+(CRP)0+Kd−({(RNA)0+(CRP)0+Kd}^2−4(RNA)0(CRP)0)½}/2 where A and A0 are the fluorescence anisotropy of CRP in the presence and absence of RNA, respectively, and DA is the difference between the fluorescence anisotropy of CRP in the presence of an extrapolated infinite concentration of RNA minus the fluorescence anisotropy in the absence of RNA. (RNA)0 and (CRP)0 are the initial concentrations of RNA and CRP, respectively.
Equation 2 is used for the calculation of the KD values in the competition binding assay. (aminoglycoside)0={KD(A−−A)/Kd(A−A0)+1}{(RNA)0−Kd(A−A0)/(A−−A)−(CRP)0(A−A0)/(A−−A)} where KD is the dissociation constant between the RNA and the aminoglycosides; (aminoglycoside)0 is the initial concentration of the aminoglycosides; AL is anisotropy of completely bound tracer. Both Kd and KD were determined by non-linear curve fitting using the equations described above, and are presented as mean values of three independent measurements.
The purification of yeast 80S ribosomes from S. cerevisiae strain YSB 758 was carried out according to the published procedure (Verschoor, A., Warner, J. R., Srivastava, S., Grassucci, R. A., & Frank, J. (1997) Nucl. Acid Res. 26, 655-661). S. cerevisiea YSB 758 were grown for 12 hrs at 30° C. in 2L of YPD medium, containing: 20 g bacto peptone, 20 g glucose, 10 g yeast extract and 0.15 g tryptophan per 1 L, pH 7.0. The cells were lysed by 5-10 cycles of 1 min vigorous shaking with glass beads with a vortex, followed by cooling on ice. Clarified cell extract (about 9 mL total, used in 6 portions in 1.5 mL aliqouts) was carefully loaded on top of 2 mL of a cushion, composed of 10% sucrose and 5% ammonium sulfate dissolved in buffer YR1 (20 mM HEPES pH=7.4, 16 mM magnesium chloride, 100 mM potassium chloride, 5 mM DTT, and 0.5 mM EDTA). The ribosomes were collected by centrifugation in Beckman TL100.3 rotor at 75000 rpm for 3 h. The supernatants were carefully discarded and ribosomes were collected in buffer YR1. […]
On the technique in general: Polarisation of emitted light reports the rotation of a fluorescent probe.

In the case of `NCC1OC(OC2C(N)CC(N)C(O)C2O)C(N)C(O)C1O` [L-Neamine], the dissociation constant Kd (commonly the constant that tells how readily two partners part at equilibrium) worked out at 6.06 ± 0.63 µM.

The values are drawn from US7244712B2, “Aminoglycoside antibiotics and methods of using same” (priority 2004, dated 2007).
